Measured values: patent US20090221624A1, “4-AMINOQUINOLINE COMPOUNDS FOR TREATING VIRUS-RELATED CONDITIONS” (priority 2005, published 2009)

Columns and labels:
EBOV minigenome = test: microbe, parasite or virus in culture; type: cell-based, Ebola virus; conditions: Zaire ebolavirus; for inhibition at 25 µM: 24 h, read-out: EBOV Inh; for EC50: read-out: EBOV EC50
SINV (SR19-F-luc cells) = test: SINV antiviral activity, SR19-F-luc cells, Firefly luciferase; type: cell-based; conditions: Sindbis virus; for inhibition at 25 µM: primary screening, 25 μM final concentration, 24 hours, percent inhibition of viral replication, read-out: SINV Inh; for EC50: secondary screening, SR19-F-luc cells
WNV (WN-hRuPac cells) = test: WNV antiviral activity, WN-hRuPac cells, Renilla luciferase; type: cell-based, West Nile virus; conditions: for EC50 / inhibition at 25 µM: West Nile virus; for EC50: Secondary Data, WNV, read-out: WNV EC50; for inhibition at 25 µM: primary screening, 25 μM final concentration, 24 hours, percent inhibition of viral replication, read-out: WNV Inh; for WNV TI: therapeutic index CC50/EC50, WNV
DNG (D2-hRuPac cells) = test: DNG antiviral activity, D2-hRuPac cells, Renilla luciferase; type: cell-based, Dengue fever virus; conditions: Dengue virus, secondary screening
YFV (YF-hRuPac cells) = test: microbe, parasite or virus in culture; type: cell-based, yellow fever virus; conditions: for inhibition at 25 µM / EC50: Yellow fever virus; for inhibition at 25 µM: 24 h, read-out: YFV Inh; for EC50: read-out: YFV EC50
RSV minigenome = test: RSV minigenome-dependent β-galactosidase expression assay (RSV β-Gal); type: cell-based, respiratory syncytial virus; conditions: for EC50 / inhibition at 25 µM: human respiratory syncytial virus; for EC50: Secondary Data, RSV, read-out: RSV EC50; for inhibition at 25 µM: primary screening, 25 μM final concentration, 24 hours, percent inhibition of viral replication, read-out: RSV Inh; for RSV TI: therapeutic index CC50/EC50, RSV
[1] = system: HCV replicon (Clone A cells, Huh7, subgenomic hepatits C virus RNA); test: HCV Neo screening assay (HCV replicon, NPTII ELISA); type: cell-based, hepatitis C virus; conditions: for inhibition at 25 µM / EC50: Hepatitis C virus, Huh-7; for inhibition at 25 µM: primary screening, 25 μM final concentration, 24 hours, percent inhibition of viral replication, read-out: HCV Inh; for EC50: Secondary Data, HCV; for HCV TI: therapeutic index CC50/EC50, HCV

| Compound | inhibition at 25 µM (EBOV minigenome) | EC50 (EBOV minigenome) | inhibition at 25 µM (SINV (SR19-F-luc cells)) | EC50 (SINV (SR19-F-luc cells)) | EC50 (WNV (WN-hRuPac cells)) | inhibition at 25 µM (WNV (WN-hRuPac cells)) | WNV TI (WNV (WN-hRuPac cells)) | EC50 (DNG (D2-hRuPac cells)) | YFV TI (YFV (YF-hRuPac cells)) | inhibition at 25 µM (YFV (YF-hRuPac cells)) | EC50 (YFV (YF-hRuPac cells)) | CC50 (in vitro; DNG CC50) | CC50 (in vitro; EBOV CC50) | CC50 (in vitro; HCV CC50) | CC50 (in vitro; RSV CC50) | CC50 (in vitro; SINV CC50) | CC50 (in vitro; WNV CC50) | CC50 (in vitro; YFV CC50) | EC50 (RSV minigenome) | inhibition at 25 µM (RSV minigenome) | other results |
| --- | --- | --- | --- | --- | --- | --- | --- | --- | --- | --- | --- | --- | --- | --- | --- | --- | --- | --- | --- | --- | --- |
| C=CCNc1c2c(nc3ccccc13)CCC2 [Compound 12] | 49.8% | 45.4 µM | 69.4% | 6.89 µM | 19.5 µM | 47.5% | 3.68 | 69.2 µM | 1.17 | 31.3% | 61.2 µM | 71.7 µM | 71.7 µM | 71 µM | 71.7 µM | 71.7 µM | 71.7 µM | 71.7 µM | 6.42 µM | 31% | RSV TI (RSV minigenome): 11.17; inhibition at 25 µM [1]: 10.3% |
| c1cncc(CNc2c3ccccc3nc3ccccc23)c1 [Compound 5] | 86% | 15.3 µM | 29.6% | 7.02 µM | 7.15 µM | 89.3% | 3.99 | 3.64 µM | 2.57 | 84.7% | 11.1 µM | 28.6 µM | 28.6 µM | 9.67 µM | 28.6 µM | 28.6 µM | 28.6 µM | 28.6 µM | 2.8 µM | 98.5% | RSV TI (RSV minigenome): 10.2; EC50 [1]: 1.76 µM; inhibition at 25 µM [1]: 211%; HCV TI [1]: 5.49 |
| Cc1ccc2nc3c(c(Nc4ccccc4)c2c1)CCC3 [Compound 27] | -4.87% | 63.4 µM | 70.6% | 1.88 µM | 2.78 µM | 60% | 18.24 | 38.4 µM | 4.3 | 70.2% | 11.8 µM | 50.7 µM | 50.7 µM | 24.2 µM | 50.7 µM | 50.7 µM | 50.7 µM | 50.7 µM | 6 µM | 92.2% | RSV TI (RSV minigenome): 8.45; EC50 [1]: 14 µM; inhibition at 25 µM [1]: 113%; HCV TI [1]: 1.73 |
| Cc1cc(Nc2ccc(C)c(C)c2)c2cc(Cl)ccc2n1 [Compound 47] | 49.5% | 75 µM | 61.4% | 7.23 µM | 8.66 µM | 73% | 6.47 | 39.4 µM | 2.86 | 77.7% | 19.6 µM | 56 µM | 56 µM | 7.84 µM | 56 µM | 56 µM | 56 µM | 56 µM | 3.96 µM | 96.4% | RSV TI (RSV minigenome): 14.14; EC50 [1]: 11 µM; inhibition at 25 µM [1]: 149%; HCV TI [1]: 0.71 |
| CCOC(=O)c1cnc2c(C)cc(C)cc2c1NCCCN(C)C [Compound 75] | 95.1% | 7.15 µM | 83.8% | 11 µM | 9 µM | 79.2% | 2.6 | 6.09 µM | 3.13 | 69.1% | 7.48 µM | 23.4 µM | 23.4 µM | 10.8 µM | 23.4 µM | 23.4 µM | 23.4 µM | 23.4 µM | 5.79 µM | 92.7% | RSV TI (RSV minigenome): 4.04; EC50 [1]: 0.75 µM; inhibition at 25 µM [1]: 122%; HCV TI [1]: 14.4 |
| Cc1cc(C)c2nc(C)cc(Nc3ccc(O)cc3)c2c1 [Compound 49] | 69.9% | 6.88 µM | 72.5% | ≥ 75 µM | 5.58 µM | 66.4% | 7.04 | 13.2 µM | 3.57 | 66.5% | 11 µM | 39.3 µM | 39.3 µM | 16.3 µM | 39.3 µM | 39.3 µM | 39.3 µM | 39.3 µM | 4.39 µM | 90.2% | RSV TI (RSV minigenome): 8.94; EC50 [1]: 11.1 µM; inhibition at 25 µM [1]: 113%; HCV TI [1]: 1.47 |
